# Assay results reported in ChEMBL document CHEMBL5143701, “Evaluation of potential anticonvulsant fluorinated N-benzamide enaminones as T-type Ca2+ channel blockers” (Bioorg Med Chem, 2022).
# The source made the active and inactive calls. The rule behind the calls is not given here.
# Columns and labels:
# Format in all cases: cell-based
# ND7/23 [1] = assay: Inhibition of Voltage-dependent T-type calcium channel in mouse ND7/23 cells assessed as reduction in volatage induced T-type Ca2+ current density at 50 uM incubated for 5 mins by whole cell voltage-clamp assay
# [2] = target: Voltage-dependent T-type calcium channel subunit alpha-1H (Homo sapiens) (UniProt O95180); assay: Inhibition of Cav3.2 (unknown origin) stably transfected in HEK293 cells assessed as volatage induced T-type Ca2+ current at 1 to 50 uM incubated for 5 mins by whole cell voltage-clamp assay; settings: dose 1-50 µM
# ND7/23 [3] = assay: Inhibition of Voltage-dependent T-type calcium channel in mouse ND7/23 cells assessed as reduction in volatage induced T-type Ca2+ current density at 50 uM incubated for 5 mins followed by compound washout by whole cell voltage-clamp assay
# [4] = Inhibition of Voltage-dependent T-type calcium channel in mouse ND7/23 cells assessed as reduction in volatage induced T-type Ca2+ current density incubated for 5 mins by whole cell voltage-clamp assay; settings: ND7/23, 5 min
# [5] = target: Voltage-dependent T-type calcium channel subunit alpha-1H (Homo sapiens) (UniProt O95180); assay: Inhibition of Cav3.2 (unknown origin) stably transfected in HEK293 cells assessed as reduction in volatage induced peak current at 10 uM incubated for 5 mins by whole cell voltage-clamp assay
# [6] = target: Voltage-dependent T-type calcium channel subunit alpha-1H (Homo sapiens) (UniProt O95180); assay: Inhibition of Cav3.2 (unknown origin) stably transfected in HEK293 cells assessed as activation time constant transient current at 10 uM incubated for 5 mins by whole cell voltage-clamp assay
# [7] = target: Voltage-dependent T-type calcium channel subunit alpha-1H (Homo sapiens) (UniProt O95180); assay: Inhibition of Cav3.2 (unknown origin) stably transfected in HEK293 cells assessed as V1/2 at 10 uM incubated for 5 mins by whole cell voltage-clamp assay (reference value: -64.8 +/- 1.3mV)
# [8] = target: Voltage-dependent T-type calcium channel subunit alpha-1H (Homo sapiens) (UniProt O95180); assay: Inhibition of Cav3.2 (unknown origin) stably transfected in HEK293 cells assessed as slope factor at 10 uM incubated for 5 mins by whole cell voltage-clamp assay (reference value: 5.2 +/- 0.2No_unit)
# [9] = target: Voltage-dependent T-type calcium channel subunit alpha-1H (Homo sapiens) (UniProt O95180); assay: Inhibition of Cav3.2 (unknown origin) stably transfected in HEK293 cells assessed as increase in recovery time at 10 uM incubated for 5 mins by whole cell voltage-clamp assay (reference value: 514.5 +/- 37.8ms)
# HEK293 = assay: Inhibition of Cav3.2 (unknown origin) stably transfected in HEK293 cells assessed as reduction in volatage induced Ca2+ current density at 10 uM incubated for 5 mins by whole cell voltage-clamp assay; settings: Homo sapiens
# [10] = target: Voltage-dependent T-type calcium channel subunit alpha-1I (Homo sapiens) (UniProt Q9P0X4); assay: Inhibition of Cav3.3 (unknown origin) stably transfected in HEK293 cells assessed as activation time constant transient current at 10 uM incubated for 5 mins by whole cell voltage-clamp assay
# [11] = target: Voltage-dependent T-type calcium channel subunit alpha-1I (Homo sapiens) (UniProt Q9P0X4); assay: Inhibition of Cav3.3 (unknown origin) stably transfected in HEK293 cells assessed as reduction inactivation time constant transient current at 10 uM incubated for 5 mins by whole cell voltage-clamp assay
# [12] = target: Voltage-dependent T-type calcium channel subunit alpha-1I (Homo sapiens) (UniProt Q9P0X4); assay: Inhibition of Cav3.3 (unknown origin) stably transfected in HEK293 cells assessed as V1/2 at 10 uM incubated for 5 mins by whole cell voltage-clamp assay (reference value: -65.6 +/- 3.1mV)
# [13] = target: Voltage-dependent T-type calcium channel subunit alpha-1I (Homo sapiens) (UniProt Q9P0X4); assay: Inhibition of Cav3.3 (unknown origin) stably transfected in HEK293 cells assessed as slope factor at 10 uM incubated for 5 mins by whole cell voltage-clamp assay (reference value: 5.3 +/- 0.6mV)
# Sequence of Voltage-dependent T-type calcium channel subunit alpha-1I (Homo sapiens) (Q9P0X4 whole entry): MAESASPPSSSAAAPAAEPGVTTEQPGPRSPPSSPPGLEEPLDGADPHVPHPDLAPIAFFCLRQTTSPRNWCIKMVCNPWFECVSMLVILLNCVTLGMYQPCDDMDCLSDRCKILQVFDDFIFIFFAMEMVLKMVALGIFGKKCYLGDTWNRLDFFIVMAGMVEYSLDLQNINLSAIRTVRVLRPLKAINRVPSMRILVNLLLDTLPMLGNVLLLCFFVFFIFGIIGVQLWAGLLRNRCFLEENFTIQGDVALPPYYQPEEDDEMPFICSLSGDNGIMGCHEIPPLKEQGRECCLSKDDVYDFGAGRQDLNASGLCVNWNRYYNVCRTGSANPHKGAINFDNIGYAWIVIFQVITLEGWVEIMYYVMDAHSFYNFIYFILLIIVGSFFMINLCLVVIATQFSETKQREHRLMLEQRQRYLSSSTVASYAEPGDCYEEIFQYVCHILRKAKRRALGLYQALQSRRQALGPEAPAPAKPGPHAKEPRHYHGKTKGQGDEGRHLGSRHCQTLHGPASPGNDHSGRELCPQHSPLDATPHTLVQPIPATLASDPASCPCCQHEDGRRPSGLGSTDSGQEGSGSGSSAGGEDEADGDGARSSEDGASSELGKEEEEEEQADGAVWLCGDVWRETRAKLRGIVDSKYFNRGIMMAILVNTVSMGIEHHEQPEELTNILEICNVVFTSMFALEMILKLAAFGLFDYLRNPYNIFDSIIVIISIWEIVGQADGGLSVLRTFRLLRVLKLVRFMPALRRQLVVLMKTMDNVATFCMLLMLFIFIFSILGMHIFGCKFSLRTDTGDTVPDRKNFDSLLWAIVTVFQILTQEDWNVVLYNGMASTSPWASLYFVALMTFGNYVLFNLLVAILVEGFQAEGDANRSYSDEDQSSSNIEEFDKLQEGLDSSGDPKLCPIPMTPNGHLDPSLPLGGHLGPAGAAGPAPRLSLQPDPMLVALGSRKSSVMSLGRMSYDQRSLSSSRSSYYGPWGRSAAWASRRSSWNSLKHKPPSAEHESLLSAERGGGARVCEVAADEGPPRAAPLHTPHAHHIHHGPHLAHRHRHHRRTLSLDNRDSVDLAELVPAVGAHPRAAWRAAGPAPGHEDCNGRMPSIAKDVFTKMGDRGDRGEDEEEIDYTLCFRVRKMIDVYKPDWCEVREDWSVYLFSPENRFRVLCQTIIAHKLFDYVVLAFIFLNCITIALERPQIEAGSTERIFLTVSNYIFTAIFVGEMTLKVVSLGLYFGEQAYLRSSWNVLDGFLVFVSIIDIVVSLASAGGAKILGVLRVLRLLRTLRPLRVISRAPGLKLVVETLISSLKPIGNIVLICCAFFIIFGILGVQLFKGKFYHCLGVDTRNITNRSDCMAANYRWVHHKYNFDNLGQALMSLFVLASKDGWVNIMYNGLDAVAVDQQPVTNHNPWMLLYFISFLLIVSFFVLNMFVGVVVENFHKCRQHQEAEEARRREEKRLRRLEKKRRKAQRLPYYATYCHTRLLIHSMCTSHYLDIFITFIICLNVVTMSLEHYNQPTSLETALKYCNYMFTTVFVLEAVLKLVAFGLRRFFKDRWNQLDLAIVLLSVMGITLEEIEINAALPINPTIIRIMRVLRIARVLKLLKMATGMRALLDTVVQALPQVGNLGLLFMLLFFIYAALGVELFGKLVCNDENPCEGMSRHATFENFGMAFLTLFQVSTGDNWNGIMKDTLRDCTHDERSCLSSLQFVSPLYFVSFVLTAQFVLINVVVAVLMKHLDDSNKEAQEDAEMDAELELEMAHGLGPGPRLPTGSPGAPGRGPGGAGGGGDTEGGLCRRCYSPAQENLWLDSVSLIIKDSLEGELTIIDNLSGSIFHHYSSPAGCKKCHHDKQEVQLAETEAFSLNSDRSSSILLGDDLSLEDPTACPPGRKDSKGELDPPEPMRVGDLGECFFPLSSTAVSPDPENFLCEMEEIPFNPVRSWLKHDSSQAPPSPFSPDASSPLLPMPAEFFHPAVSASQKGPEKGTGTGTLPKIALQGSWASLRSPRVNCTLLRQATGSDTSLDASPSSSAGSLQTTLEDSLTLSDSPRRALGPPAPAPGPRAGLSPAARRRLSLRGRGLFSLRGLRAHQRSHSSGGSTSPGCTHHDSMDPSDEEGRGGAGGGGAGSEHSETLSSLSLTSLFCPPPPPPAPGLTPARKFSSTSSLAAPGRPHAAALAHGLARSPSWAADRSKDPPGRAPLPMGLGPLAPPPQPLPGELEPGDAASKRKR
# Sequence of Voltage-dependent T-type calcium channel subunit alpha-1H (Homo sapiens) (O95180 whole entry): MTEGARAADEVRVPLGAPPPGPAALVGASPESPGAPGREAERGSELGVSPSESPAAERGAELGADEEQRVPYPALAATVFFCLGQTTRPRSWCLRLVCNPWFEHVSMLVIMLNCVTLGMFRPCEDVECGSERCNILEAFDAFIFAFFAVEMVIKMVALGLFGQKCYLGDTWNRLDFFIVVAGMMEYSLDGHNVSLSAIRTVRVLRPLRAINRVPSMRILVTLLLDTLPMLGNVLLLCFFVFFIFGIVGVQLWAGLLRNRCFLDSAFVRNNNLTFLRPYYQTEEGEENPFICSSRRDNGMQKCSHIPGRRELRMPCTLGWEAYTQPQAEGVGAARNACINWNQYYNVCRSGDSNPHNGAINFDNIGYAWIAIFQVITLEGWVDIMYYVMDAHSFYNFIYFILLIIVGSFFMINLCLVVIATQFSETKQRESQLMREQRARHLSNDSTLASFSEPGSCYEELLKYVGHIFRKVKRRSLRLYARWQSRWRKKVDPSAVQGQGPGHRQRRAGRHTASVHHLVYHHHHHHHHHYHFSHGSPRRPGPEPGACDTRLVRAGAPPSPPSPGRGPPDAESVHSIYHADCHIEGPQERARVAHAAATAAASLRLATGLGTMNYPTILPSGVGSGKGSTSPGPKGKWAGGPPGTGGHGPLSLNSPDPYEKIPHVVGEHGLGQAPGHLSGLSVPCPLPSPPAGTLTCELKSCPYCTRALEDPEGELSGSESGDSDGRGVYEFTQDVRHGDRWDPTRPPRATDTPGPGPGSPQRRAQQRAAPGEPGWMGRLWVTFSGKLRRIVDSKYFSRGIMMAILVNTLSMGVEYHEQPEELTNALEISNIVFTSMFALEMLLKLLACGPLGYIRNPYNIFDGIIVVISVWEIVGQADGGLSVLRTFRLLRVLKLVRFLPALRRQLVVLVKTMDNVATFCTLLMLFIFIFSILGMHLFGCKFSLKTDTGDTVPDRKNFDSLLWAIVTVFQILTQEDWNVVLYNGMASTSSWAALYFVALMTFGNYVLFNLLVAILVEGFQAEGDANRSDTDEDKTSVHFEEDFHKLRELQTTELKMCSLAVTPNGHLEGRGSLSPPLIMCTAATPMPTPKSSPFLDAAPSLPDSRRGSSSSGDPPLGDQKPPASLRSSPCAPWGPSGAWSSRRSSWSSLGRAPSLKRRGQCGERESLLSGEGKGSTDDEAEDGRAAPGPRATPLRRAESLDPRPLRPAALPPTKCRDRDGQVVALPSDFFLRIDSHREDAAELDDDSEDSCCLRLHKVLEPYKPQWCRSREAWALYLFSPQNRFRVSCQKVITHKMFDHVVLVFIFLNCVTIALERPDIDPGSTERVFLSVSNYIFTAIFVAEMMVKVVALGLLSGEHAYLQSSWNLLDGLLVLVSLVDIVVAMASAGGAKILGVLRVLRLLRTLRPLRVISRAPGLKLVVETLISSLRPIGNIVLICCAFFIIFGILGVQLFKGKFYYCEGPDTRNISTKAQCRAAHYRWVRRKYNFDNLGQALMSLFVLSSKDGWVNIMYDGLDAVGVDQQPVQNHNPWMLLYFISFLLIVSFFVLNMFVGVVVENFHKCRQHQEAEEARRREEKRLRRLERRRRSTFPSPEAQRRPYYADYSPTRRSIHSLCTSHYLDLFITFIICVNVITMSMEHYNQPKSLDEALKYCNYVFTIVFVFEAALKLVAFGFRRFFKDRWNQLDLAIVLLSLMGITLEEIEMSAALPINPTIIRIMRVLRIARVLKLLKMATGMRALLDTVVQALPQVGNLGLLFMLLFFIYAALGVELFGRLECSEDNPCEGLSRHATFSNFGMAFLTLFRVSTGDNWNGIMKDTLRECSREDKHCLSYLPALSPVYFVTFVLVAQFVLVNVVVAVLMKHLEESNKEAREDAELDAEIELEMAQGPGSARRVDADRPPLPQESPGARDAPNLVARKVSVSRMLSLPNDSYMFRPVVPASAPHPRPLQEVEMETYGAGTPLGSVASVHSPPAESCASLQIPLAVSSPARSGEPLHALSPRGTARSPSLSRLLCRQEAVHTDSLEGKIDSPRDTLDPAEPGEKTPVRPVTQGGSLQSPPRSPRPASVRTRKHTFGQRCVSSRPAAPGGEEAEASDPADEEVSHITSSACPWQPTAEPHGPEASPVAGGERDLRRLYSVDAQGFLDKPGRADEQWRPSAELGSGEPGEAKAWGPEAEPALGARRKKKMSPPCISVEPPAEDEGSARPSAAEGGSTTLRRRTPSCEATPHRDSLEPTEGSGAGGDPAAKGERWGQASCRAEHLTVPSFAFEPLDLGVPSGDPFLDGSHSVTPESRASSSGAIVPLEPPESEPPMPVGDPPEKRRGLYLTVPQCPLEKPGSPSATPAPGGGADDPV
Compound,inhibition (ND7/23 [1]),inhibition [2],inhibition (ND7/23 [3]),IC50 [4] [µM],inhibition [5],inhibition [6],V1/2 [7] [mV],Activity [8],TIME [9] [h],inhibition (HEK293),inhibition [10],inhibition [11],V1/2 [12] [mV],Activity [13]
CC1CC(=O)C=C(NC(=O)c2cccc(C(F)(F)F)c2)C1 (stereo not given),Active,–,–,–,–,–,–,–,–,–,–,–,–,–
CC1CC(=O)C=C(NC(=O)c2ccccc2C(F)(F)F)C1 (stereo not given),Active,–,–,–,–,–,–,–,–,–,–,–,–,–
CC1CC(=O)C=C(NC(=O)c2cc(C(F)(F)F)cc(C(F)(F)F)c2)C1 (stereo not given),–,Active,Active,18.9,Active,Active,-70.2,6,0.000267,Active,Active,Active,-58.5,5.3
